In paper PMC8472287, “Betulinic Acid Decorated with Polar Groups and Blue Emitting BODIPY Dye: Synthesis, Cytotoxicity, Cell-Cycle Analysis and Anti-HIV Profiling” (Biomedicines, 2021):
Where two headings read alike, the source gives them in different places.

Legend:
U2OS-Nuc cell line = experiment: Live cell imaging, pilot experiment; format: cell-based, human; settings: 10 µM, 1 h incubation
Procedure: (§1) U2OS cell line (ATCC, USA) was transduced with premade lentiviral particles (Vectalis-TaKaRa, Japan) with sequences that express fluorescent protein tag mCherry targeted to specific subcellular locations. All cell lines were prepared according to the vendor’s instructions. The U2OS-Nuc cell line was prepared by using rLV.EF1.mCherry-Nuc-9 (cat. n. 0023VCT), containing a NLS sequence that imports protein into the nucleus. The U2OS-ER cell line was transduced by rLV.EF1.mCherry-ER-9 (cat. n. 0025VCT), which contains a calreticulin signal sequence and a KDEL sequence that associates protein with the endoplasmic reticulum. The U2OS-GA cell line was transduced by rLV.EF1.mCherry-Golgi-9 (cat. n. 0022VCT), containing a human GT precursor, a protein localized in Golgi Apparatus. The U2OS-Mito cell line was prepared by using rLV.EF1.mCherry-Mito-9 (cat. n. 0024VCT), containing a mitochondrial targeting sequence.
(§2) U2OS cells with fluorescent fusion proteins (density 1.0 × 10^3 per well) were seeded into 384 CellCarrier plates (Perkin Elmer, Waltham, MA, USA) and pre-incubated for 24 h at 37 °C and 5% CO2. The attached cells were treated with tested compounds in concentration 10 µM for 1 h and subsequently rinsed with fresh media. The live-cell imaging was performed by Cell Voyager CV7000 (Yokogawa, Tokyo, Japan) spinning disc confocal microscopy system at 37 °C in a 5% CO2 atmosphere. Live cells were monitored by a 60 × water immersion objective. The fluorescent signal was excited by lasers (405 nm and 561 nm) and the emission was filtered by bandpass filters (BP 445/45 and BP 595/20). All images were post-processed, and Pearson’s and Mander’s coefficients were calculated using the JACoP plugin in Image-J software.

[1] = test system: U2OS-ER, U2OS-Mito and U2OS-GA cell lines; experiment: Live cell colocalization experiments; format: cell-based, human; settings: 10 µM, 1 h, Mander's coefficient
Procedure: as §1, §2

CCRF-CEM = experiment: MTS cytotoxicity assay, CCRF-CEM; format: cell-based; settings: Homo sapiens, 72 h, 3-day incubation
Source text: (§3) All cells (if not indicated otherwise) were purchased from the American Tissue Culture Collection (ATCC; Manassas, VA, USA). The highly chemosensitive CCRF-CEM line is derived from T lymphoblastic leukaemia, K562 represent cells of chronic myelogenous leukaemia. Colorectal adenocarcinoma HCT116 cell line and its p53 gene knockout counterpart (HCT116p53−/−, Horizon Discovery Ltd., Cambridge, UK) were used as models to assess the impact of p53 deficiency on cell line sensitivity. A549 cells are derived from lung adenocarcinoma and U2OS from human osteosarcoma. CEM-DNR and K562-Tax are well-characterized daunorubicin and paclitaxel-resistant sublines of CCRF-CEM and K562. The CEM-DNR resistant cells overexpress the P-glycoprotein and LRP protein, the K562-Tax overexpress P-glycoprotein but is losing the expression of LRP, which is present at parental K562 cell line. P-glycoprotein belongs to the ABC transporters’ family and is involved in the primary and acquired multidrug resistance phenomenon by the efflux of toxic compounds, LRP protein is involved in the lysosomal degradation. MRC-5 and BJ cell lines were used as a non-tumour control and represent human fibroblasts. The cells were maintained in Nunc/Corning 80 cm^2 plastic tissue culture flasks and cultured in cell culture medium according to ATCC or Horizon recommendations (DMEM/RPMI 1640 with 5 g/L-glucose, 2 mM glutamine, 100 U/mL penicillin, […] streptomycin, 10% fetal calf serum, and NaHCO3).
(§4) To perform the cytotoxicity MTS assay, cell suspensions were prepared and diluted according to the cell type and the expected target cell density (25,000–35,000 cells/mL) based on cell growth characteristics. Cells were added by an automatic pipettor (30 μL) into 384 well microtiter plates. All tested compounds were dissolved in 100% DMSO and four-fold dilutions of the intended test concentration were added in 0.15 μL aliquots at time zero to the microtiter plate wells by the echo-acoustic liquid handler Echo550 (Labcyte, San Jose, CA, USA). The experiments were performed in technical duplicates and at least three biological replicates. The cells were incubated with the tested compounds for 72 h at 37 °C, in a 5% CO2 atmosphere at 99% humidity. At the end of the incubation period, the cells were assayed by using the MTS test. Aliquots (5 µL) of the MTS stock solution were pipetted into each well and incubated for an additional 1–4 h. After this incubation period, the optical density (OD) was measured at 490 nm with an Envision microplate reader (Perkin Elmer, Waltham, Massachusetts, USA). Tumour cell survival (TCS) was calculated using the following equation: TCS = (ODdrug-exposed well/mean ODcontrol wells) × 100%.

CEM-DNR = experiment: MTS cytotoxicity assay, CEM-DNR; format: cell-based; settings: Homo sapiens, 72 h, CEM-DNR (daunorubicin resistant), 3-day incubation
Source text: as §3, §4

K562 = experiment: MTS cytotoxicity assay, K562; format: cell-based; settings: Homo sapiens, 72 h, 3-day incubation
Source text: as §3, §4

K562-Tax = experiment: MTS cytotoxicity assay, K562-Tax; format: cell-based; settings: Homo sapiens, 72 h, K562-Tax (paclitaxel-resistant), 3-day incubation
Source text: as §3, §4

A549 = experiment: MTS cytotoxicity assay, A549; format: cell-based; settings: Homo sapiens, 72 h, 3-day incubation
Source text: as §3, §4

HCT116 = experiment: MTS cytotoxicity assay, HCT116; format: cell-based; settings: Homo sapiens, HCT-116, 72 h, 3-day incubation
Source text: as §3, §4

HCT116p53−/− = experiment: MTS cytotoxicity assay, HCT116p53−/−; format: cell-based; settings: Homo sapiens, HCT116-p53-null, 72 h, HCT116p53−/− (null p53 gene), 3-day incubation
Source text: as §3, §4

U2OS = experiment: MTS cytotoxicity assay, U2OS; format: cell-based; settings: Homo sapiens, 72 h, 3-day incubation
Source text: as §3, §4

MRC-5 = experiment: MTS cytotoxicity assay, MRC-5; format: cell-based; settings: Homo sapiens, MRC5, 72 h, MRC-5 normal fibroblasts, 3-day incubation
Source text: as §3, §4

BJ = experiment: MTS cytotoxicity assay, BJ; format: cell-based; settings: Homo sapiens, 72 h, BJ normal fibroblasts, 3-day incubation
Source text: as §3, §4

CCRF-CEM lymphoblasts [2] = experiment: Cell cycle and apoptosis analysis (flow cytometry, propidium iodide); format: cell-based, human; settings: 5 × IC50
Procedure: (§5) CCRF-CEM cells were seeded in 6-well plates at a density of 1 × 10^6/well. […] Cells were then harvested, washed with cold 1 × PBS and fixed in ice-cold 70% ethanol. Fixed cells were incubated overnight at −20 °C, washed in hypotonic citrate buffer, treated with RNase (50 μg mL^−1) and incubated with propidium iodide for 15 min. DNA content was analysed using Becton Dickinson flow cytometer and cell cycle data were analysed in the program ModFitLT (Verity, Carrollton, TX, USA). Apoptosis was measured in a logarithmic model expressing the percentage of the particles with propidium content lower than cells in G0/G1 phase (<G1) of the cell cycle. The mitotic marker pH3Ser10 antibody (Sigma) and secondary anti-mouse-FITC antibody (Sigma) were used for labelling and subsequent flow cytometry analysis of ethanol-fixed CCRF-CEM cells.

CCRF-CEM lymphoblasts [3] = experiment: Mitotic marker pH3Ser10 flow cytometry; format: cell-based, human; settings: 5 × IC50
Procedure: as §5

CCRF-CEM lymphoblasts [4] = experiment: BrDU incorporation analysis (DNA synthesis); format: cell-based, human; settings: 24 h incubation
Procedure: Cells were cultivated as in the method above and pulse-labelled with 10 μM 5-bromo-2-deoxyuridine (BrDU) for 30 min before collection to the test tubes. The cells were washed with cold 1 × PBS and fixed in ice-cold 70% ethanol. Before analysis, they were washed with 1 × PBS and incubated in 2M HCl for 30 min at room temperature. Following neutralization with 0.1M Na2B4O7 (borax), the cells were washed with 0.5% Tween-20 and 1% BSA in 1 × PBS. The cell pellets were stained using a primary anti-BrdU antibody (Exbio, Vestec, Czech Republic) for 30 min at room temperature and a secondary anti-mouse-FITC antibody (Sigma). The samples were then incubated with propidium iodide (0.1 mg mL^−1), treated with RNase A (0.5 mg mL^−1) for 1 h at room temperature in the dark and analysed as above.

CCRF-CEM lymphoblasts [5] = experiment: BrU incorporation analysis (RNA synthesis); format: cell-based, human; settings: 24 h, 5 × IC50 (high concentration)
[6] = test system: VSV-G pseudotyped HIV-1 particles; experiment: microbe, parasite or virus in culture; format: cell-based; settings: read-out: IC50i (50% infection inhibition)
[7] = test system: CA-SP1 processing of HIV-1 Gag polyprotein; experiment: Western blot of released virions with anti-HIV-1 CA antibody; format: cell-based
in vitro = settings: human
[8] = Human immunodeficiency virus 1, HEK293, 48 h

For O=C(O)CCNC1=C2C=CC=[N+]2[B-](F)(F)n2cccc21 [BODIPY-CO2H, 8-N-(β-Alanyl)amino-4,4-difluoro-4-bora-3a,4a-diaza-s-indacene], the “detection in living cells” value (U2OS-Nuc cell line) was “not detected”.

For NCCCNC1=C2C=CC=[N+]2[B-](F)(F)n2cccc21 [BODIPY-NH2, 8-N-(3-Aminopropyl)amino-4,4-difluoro-4-bora-3a,4a-diaza-s-indacene], the “detection in living cells” value (U2OS-Nuc cell line) was “not detected”.

For CSC1=C2C=CC=[N+]2[B-](F)(F)n2cccc21 [BODIPY-SMe, 8-thiomethyl BODIPY, reference compound], the “detection in living cells” value (U2OS-Nuc cell line) was “penetrate cell compartments” and the “colocalization with cellular structures” value [1] was “perfect colocalization in all studied cell lines”.

C=C(C)[C@@H]1CC[C@]2(C(=O)NCCCN=[N+]=[N-])CC[C@]3(C)[C@H](CC[C@@H]4[C@@]5(C)CC[C@H](OC(=O)CC(C)(C)C(=O)O)C(C)(C)[C@@H]5CC[C@]43C)[C@@H]12 [Compound 2, 4-{[(3β)-28-[(3-Azidopropyl)amino]-28-oxolup-20(29)-ene-3-yl]oxy}-2,2-dimethyl-4-oxo-butanoic acid] showed an IC50 (CCRF-CEM) of 8.14 µM, an IC50 (CEM-DNR) of 10.2 µM and an IC50 (K562) of 26 µM. The IC50 (K562-Tax) was 15.9 µM, the IC50 (A549) was 22.9 µM and the IC50 (HCT116) was 19.4 µM. For the same molecule, the IC50 (HCT116p53−/−) was 29.2 µM, the IC50 (U2OS) was 22.2 µM and the IC50 (MRC-5) was 24.2 µM. For the same molecule, the IC50 (BJ) was 25.3 µM, the “increase of the percentage of cells in the S-phase compared to untreated control” value (CCRF-CEM lymphoblasts [2]) was “about 50%” and the “rate of cell division by mitotic marker pH3Ser10 (in words)” value (CCRF-CEM lymphoblasts [3]) was “low rate of cell division”. The “fraction of proliferating BrDU positive CCRF-CEM cells (in words)” value (shortened to “fraction”) (CCRF-CEM lymphoblasts [4]) was “increased the percentage of cells incorporating BrDU”, the “RNA synthesis by BrU (in words)” value (CCRF-CEM lymphoblasts [5]) was “stalled RNA synthesis” and the IC50 [6, 8] was 11.7 µM. The “CA forms identified in released viruses (CA-SP1 processing)” value (“CA forms identified in released viruses” below) [7] was “not only fully processed p24 CA, but also p25 CA-SP1 protein”, the “cytotoxic effect in the cell line panel (in words)” value (shortened to “cytotoxic effect”) (entire cell line panel) was “medium cytotoxicity” and the IC50 (in vitro) was 36.4 µM.

With C=C(C)[C@@H]1CC[C@]2(C(=O)N3CCN(CCNC(=O)OC(C)(C)C)CC3)CC[C@]3(C)[C@H](CC[C@@H]4[C@@]5(C)CC[C@H](OC(C)=O)C(C)(C)[C@@H]5CC[C@]43C)[C@@H]12 [Compound 12, (3β)-28-(4-{2-[(Tert-butoxycarbonyl)amino]ethyl}piperazine-1-yl)-28-oxolup-20(29)-ene-3-yl acetate] the IC50 (CCRF-CEM) was 9.62 µM, the IC50 (CEM-DNR) was > 50 µM and the IC50 (K562) was > 50 µM. The IC50 (K562-Tax) was > 50 µM, the IC50 (A549) was > 50 µM and the IC50 (HCT116) was > 50 µM. For the same molecule, the IC50 (HCT116p53−/−) was > 50 µM, the IC50 (U2OS) was > 50 µM and the IC50 (MRC-5) was > 50 µM. The IC50 (BJ) was > 50 µM, the “increase of the percentage of cells in the S-phase compared to untreated control” value (CCRF-CEM lymphoblasts [2]) was “about 50%” and the “rate of cell division by mitotic marker pH3Ser10 (in words)” value (CCRF-CEM lymphoblasts [3]) was “low rate of cell division”. The “fraction” value (CCRF-CEM lymphoblasts [4]) was “increased the percentage of cells incorporating BrDU”, the IC50 [6, 8] was 31.9 µM and the “CA forms identified in released viruses” value [7] was “Only completely processed p24 CA”. The “cytotoxic effect” value (entire cell line panel) was “inactive” and the IC50 (in vitro) was > 40 µM.

With C=C(C)[C@@H]1CC[C@]2(C(=O)N3CCN(CCNC4=C5C=CC=[N+]5[B-](F)(F)n5cccc54)CC3)CC[C@]3(C)[C@H](CC[C@@H]4[C@@]5(C)CC[C@H](OC(=O)CC(C)(C)C(=O)O)C(C)(C)[C@@H]5CC[C@]43C)[C@@H]12 [Compound 18, 4-{[(3β)-28-{4-[N-(4,4-Difluoro-4-bora-3a,4a-diaza-s-indacene-8-yl)-2-aminoethyl]piperazine-1-yl}-28-oxolup-20(29)-ene-3-yl]oxy}-2,2-dimethyl-4-oxobutanoic acid] the IC50 (CCRF-CEM) was 8.61 µM, the IC50 (CEM-DNR) was > 50 µM and the IC50 (K562) was > 50 µM. The IC50 (K562-Tax) was > 50 µM, the IC50 (A549) was 47.8 µM and the IC50 (HCT116) was 30.8 µM. For the same molecule, the IC50 (HCT116p53−/−) was 45.5 µM, the IC50 (U2OS) was > 50 µM and the IC50 (MRC-5) was > 50 µM. For the same molecule, the IC50 (BJ) was > 50 µM, the “fraction” value (CCRF-CEM lymphoblasts [4]) was “increased the percentage of cells incorporating BrDU” and the “RNA synthesis by BrU (in words)” value (CCRF-CEM lymphoblasts [5]) was “increased the percentage of BrU positive cells”. The IC50 [6, 8] was < 10 µM, the IC50 [6] was 7.1 µM and the “CA forms identified in released viruses” value [7] was “not only fully processed p24 CA, but also p25 CA-SP1 protein”. For the same molecule, the “cytotoxic effect” value (entire cell line panel) was “inactive” and the IC50 (in vitro) was > 40 µM.
